Measurements: ChEMBL document CHEMBL1143598, “1-Methyl-3H-pyrazolo[1,2-a]benzo[1,2,3,4]tetrazin-3-ones. Design, synthesis, and biological activity of new antitumor agents” (2005)

What was measured:
[1] = Concentration required to inhibit total cell growth of human tumor cell lines (52 cells giving positive results out of 53 cells; Range = 5.53-4.07; format: functional; conditions: read-out: pTGI50 (converted)
[2] = Concentration required to inhibit cell growth of human tumor cell lines (53 cells giving positive results out of 53 cells); Range = 5.85-4.50; format: functional
[3] = Concentration required to inhibit cell death of human tumor cell lines (49 cells giving positive results out of 53 cells); Range = 5.25-4.11; format: functional; conditions: read-out: pLC50 (the source's name) (converted)
[4] = Concentration required to inhibit cell growth of human tumor cell lines (54 cells giving positive results out of 54 cells); Range = 6.76-4.46; format: functional
[5] = Concentration required to inhibit total cell growth of human tumor cell lines (51 cells giving positive results out of 54 cells); Range = 6.14-4.29; format: functional; conditions: read-out: pTGI50 (converted)
[6] = Concentration required to inhibit cell death of human tumor cell lines (46 cells giving positive results out of 54 cells); Range = 5.36-4.01; format: functional; conditions: read-out: pLC50 (the source's name) (converted)
[7] = Concentration required to inhibit cell growth of human tumor cell lines (53 cells giving positive results out of 55 cells); Range is 5.68-4.53; format: functional
[8] = Concentration required to inhibit cell death of human tumor cell lines (40 cells giving positive results out of 55 cells); Range = 4.26-4.06; format: functional; conditions: read-out: pLC50 (the source's name) (converted)
[9] = Concentration required to inhibit total cell growth of human tumor cell lines (50 cells giving positive results out of 55 cells); Range = 5.23-4.07; format: functional; conditions: read-out: pTGI50 (converted)
[10] = Concentration required to inhibit cell growth of human tumor cell lines (51 cells giving positive results out of 53 cells); Range = 5.75-4.67; format: functional
[11] = Concentration required to inhibit cell death of human tumor cell lines (50 cells giving positive results out of 53 cells); Range = 5.21-4.01; format: functional; conditions: read-out: pLC50 (the source's name) (converted)
[12] = Concentration required to inhibit total cell growth of human tumor cell lines (52 cells giving positive results out of 53 cell lines); Range = 5.47-4.34; format: functional; conditions: read-out: pTGI50 (converted)
[13] = Concentration required to inhibit cell growth of human tumor cell lines (54 cells giving positive results out of 55 cells); Range = 5.75-4.50; format: functional
[14] = Concentration required to inhibit total cell growth of human tumor cell lines (50 cells giving positive results out of 55 cells); Range = 5.45-4.00; format: functional; conditions: read-out: pTGI50 (converted)
[15] = Concentration required to inhibit cell death of human tumor cell lines (48 cells giving positive results out of 55 cells); Range = 5.19-4.05; conditions: read-out: pLC50 (the source's name) (converted)
[16] = Concentration required to inhibit cell death of human tumor cell lines (50 cells giving positive results out of 55 cells); Range = 5.27-4.1; format: functional; conditions: read-out: pLC50 (the source's name) (converted)
[17] = Concentration required to inhibit total cell growth of human tumor cell lines (54 cells giving positive results out of 55 cells); Range = 5.72-4.10; format: functional; conditions: read-out: pTGI50 (converted)
[18] = Concentration required to inhibit cell growth of human tumor cell lines (55 cells giving positive results out of 55 cells); Range = 6.28-4.59; format: functional
[19] = Concentration required to inhibit cell growth of human tumor cell lines (53 cells giving positive results out of 54 cells); Range = 6.05-4.50; format: functional
[20] = Concentration required to inhibit total cell growth of human tumor cell lines (52 cells giving positive results out of 54 cells); Range = 5.53-4.02; format: functional; conditions: read-out: pTGI50 (converted)
[21] = Concentration required to inhibit cell death of human tumor cell lines (45 cells giving positive results out of 54 cells); Range = 5.25-4.05; format: functional; conditions: read-out: pLC50 (the source's name) (converted)

Work on Cc1ccc2c(c1)nnn1c(=O)cc(C)n21 yielded a GI50 [1] of 2950 nM, a GI50 [2] of 1410 nM and a CC50 [3] of 5620 nM.

Work on Cc1ccc2nnn3c(=O)cc(C)n3c2c1 yielded a GI50 [4] of 174 nM, a GI50 [5] of 724 nM and a CC50 [6] of 4370 nM.

For Cc1cc(=O)n2nnc3ccccc3n12, the GI50 [7] was 2090 nM, the CC50 [8] was 55000 nM and the GI50 [9] was 5890 nM.

For Cc1cc(=O)n2nnc3cc(F)ccc3n12, the GI50 [10] was 1780 nM, the CC50 [11] was 6170 nM and the GI50 [12] was 3390 nM.

In the case of COc1ccc2c(c1)nnn1c(=O)cc(C)n21, the GI50 [13] is reported as 1780 nM, the GI50 [14] is reported as 3550 nM and the CC50 [15] is reported as 6460 nM.

Cc1cc(=O)n2nnc3cc(Cl)ccc3n12 showed a CC50 [16] of 5370 nM, a GI50 [17] of 1910 nM and a GI50 [18] of 525 nM.

Work on Cc1cc(=O)n2nnc3ccc(Cl)cc3n12 yielded a GI50 [19] of 891 nM, a GI50 [20] of 2950 nM and a CC50 [21] of 5620 nM.
